From paper PMC8666670, “Malonyl-acyl carrier protein decarboxylase activity promotes fatty acid and cell envelope biosynthesis in Proteobacteria” (The Journal of Biological Chemistry, 2021)

Tests used:
GlmU = target: T1, GlmU (Escherichia coli, UniProt P0ACC7); assay: surface plasmon resonance, immobilised His-tagged GlmU, […] equilibrium affinity; type: binding; conditions: read-out: equilibrium dissociation constant
T1 construct: full-length in pET28a, His-tag kept; expressed in E. coli BL21(DE3)
T1 sequence (P0ACC7 whole entry): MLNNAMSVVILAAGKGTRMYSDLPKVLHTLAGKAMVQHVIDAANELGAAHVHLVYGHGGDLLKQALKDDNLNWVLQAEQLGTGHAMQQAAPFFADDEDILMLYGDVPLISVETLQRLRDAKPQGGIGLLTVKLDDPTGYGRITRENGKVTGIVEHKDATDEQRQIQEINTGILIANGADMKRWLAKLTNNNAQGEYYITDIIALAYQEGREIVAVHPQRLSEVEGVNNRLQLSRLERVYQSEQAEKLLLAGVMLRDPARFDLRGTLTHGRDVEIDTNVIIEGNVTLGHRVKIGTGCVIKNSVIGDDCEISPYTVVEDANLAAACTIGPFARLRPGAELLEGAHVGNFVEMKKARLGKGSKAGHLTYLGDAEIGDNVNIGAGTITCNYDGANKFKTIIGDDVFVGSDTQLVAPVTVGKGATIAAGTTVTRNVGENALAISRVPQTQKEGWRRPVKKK

MadB [1] = target: T2, MadB (Shewanella oneidensis, UniProt Q8E989); assay: malonyl-CoA decarboxylase assay, HPLC; type: biochemical; conditions: 0.1 M Tris pH 7, 0.2 M NaCl, 37 °C; given for the Mad proteins collectively
T2 construct: gene yiiD
T2 sequence (Q8E989 1-145): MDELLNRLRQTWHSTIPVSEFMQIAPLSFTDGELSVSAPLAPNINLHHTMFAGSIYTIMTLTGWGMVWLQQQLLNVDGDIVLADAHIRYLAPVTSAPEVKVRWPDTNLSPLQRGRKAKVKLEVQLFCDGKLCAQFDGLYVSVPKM

MadB [2] = target: T3, MadB (Shewanella oneidensis, UniProt Q8E989, D79A); assay: malonyl-CoA decarboxylase assay, HPLC; type: biochemical; conditions: 4 mM malonyl-CoA, 0.1 M Tris pH 7, 0.2 M NaCl, 37 °C
T3 construct: gene yiiD
T3 sequence (Q8E989 entry or part of it D79A): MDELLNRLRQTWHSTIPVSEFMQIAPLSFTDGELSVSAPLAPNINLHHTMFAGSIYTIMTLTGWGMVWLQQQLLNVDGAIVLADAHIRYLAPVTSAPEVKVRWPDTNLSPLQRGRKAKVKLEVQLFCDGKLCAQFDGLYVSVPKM

MadB [3] = target: T4, MadB (Shewanella oneidensis, UniProt Q8E989, S54A); assay: malonyl-CoA decarboxylase assay, HPLC; type: biochemical; conditions: 4 mM malonyl-CoA, 0.1 M Tris pH 7, 0.2 M NaCl, 37 °C
T4 construct: gene yiiD
T4 sequence (Q8E989 entry or part of it S54A): as the sequence (Q8E989 entry or part of it D79A) above, with S54A, A79D counted along it

MadA = target: T5, MadA (Escherichia coli, UniProt P0ADQ2, M17A); assay: malonyl-CoA decarboxylase assay, HPLC; type: biochemical; conditions: 0.1 M Tris pH 7, 0.2 M NaCl, 37 °C; given for the Mad proteins collectively
T5 construct: gene fabY; full-length GNAT-hot dog protein, dimer, pET28a His-tag, M17A to remove second start site; expressed in E. coli BL21(DE3)
T5 sequence (P0ADQ2 whole entry M17A): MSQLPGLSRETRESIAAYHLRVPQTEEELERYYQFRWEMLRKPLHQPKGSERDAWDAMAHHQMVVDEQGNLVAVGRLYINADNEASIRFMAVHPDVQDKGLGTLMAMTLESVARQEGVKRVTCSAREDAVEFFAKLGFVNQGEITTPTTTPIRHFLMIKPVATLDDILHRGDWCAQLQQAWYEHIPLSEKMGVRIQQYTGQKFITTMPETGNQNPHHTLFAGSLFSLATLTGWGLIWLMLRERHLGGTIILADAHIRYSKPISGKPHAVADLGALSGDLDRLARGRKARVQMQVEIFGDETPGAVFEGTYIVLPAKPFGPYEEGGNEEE

MadA^C = target: T6, MadA^C (Escherichia coli, UniProt P0ADQ2); assay: malonyl-CoA decarboxylase assay, HPLC; type: biochemical; conditions: 0.1 M Tris pH 7, 0.2 M NaCl, 37 °C; given for the Mad proteins collectively
T6 construct: gene fabY; C-terminal hot dog domain, residues 171-329, His6-tag cleaved by thrombin, dimer; expressed in E. coli BL21(DE3)
T6 sequence (P0ADQ2 171-329): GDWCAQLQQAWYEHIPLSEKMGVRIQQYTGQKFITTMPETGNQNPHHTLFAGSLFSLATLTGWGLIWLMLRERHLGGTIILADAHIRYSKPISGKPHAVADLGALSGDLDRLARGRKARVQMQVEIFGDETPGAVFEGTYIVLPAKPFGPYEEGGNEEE

CC(=O)SCCNC(=O)CCNC(=O)[C@H](O)C(C)(C)COP(=O)(O)OP(=O)(O)OC[C@H]1O[C@@H](n2cnc3c(N)ncnc32)[C@H](O)[C@@H]1OP(=O)(O)O [acetyl-CoA]
Kd (GlmU): 967 ± 48.3 µM

CC(C)(COP(=O)(O)OP(=O)(O)OC[C@H]1O[C@@H](n2cnc3c(N)ncnc32)[C@H](O)[C@@H]1OP(=O)(O)O)[C@@H](O)C(=O)NCCC(=O)NCCSC(=O)CC(=O)O [malonyl-CoA]
Km (MadB [1]): > 5 mM
malonyl-CoA decarboxylase assay, HPLC (MadB [2]): The MadB(S54A) and MadB(D79A) mutants had nearly normal malonyl-CoA decarboxylase activity
malonyl-CoA decarboxylase assay, HPLC (MadB [3]): The MadB(S54A) and MadB(D79A) mutants had nearly normal malonyl-CoA decarboxylase activity
Km (MadA): > 5 mM
Km (MadA^C): > 5 mM
